{"source": "patent US20230293535A1", "about": "“ERBB/BTK INHIBITORS” (Dizal (Jiangsu) Pharmaceutical Co., Ltd., priority 2018, published 2023)", "key": {"[1]": {"target": "T1, human EGFR exon 20 H773_V774insNPH (Homo sapiens, UniProt P00533, INS773NPH)", "T1 construct": "host or cells: Ba/F3", "T1 sequence (P00533 with tags, fused parts or gaps INS773NPH)": "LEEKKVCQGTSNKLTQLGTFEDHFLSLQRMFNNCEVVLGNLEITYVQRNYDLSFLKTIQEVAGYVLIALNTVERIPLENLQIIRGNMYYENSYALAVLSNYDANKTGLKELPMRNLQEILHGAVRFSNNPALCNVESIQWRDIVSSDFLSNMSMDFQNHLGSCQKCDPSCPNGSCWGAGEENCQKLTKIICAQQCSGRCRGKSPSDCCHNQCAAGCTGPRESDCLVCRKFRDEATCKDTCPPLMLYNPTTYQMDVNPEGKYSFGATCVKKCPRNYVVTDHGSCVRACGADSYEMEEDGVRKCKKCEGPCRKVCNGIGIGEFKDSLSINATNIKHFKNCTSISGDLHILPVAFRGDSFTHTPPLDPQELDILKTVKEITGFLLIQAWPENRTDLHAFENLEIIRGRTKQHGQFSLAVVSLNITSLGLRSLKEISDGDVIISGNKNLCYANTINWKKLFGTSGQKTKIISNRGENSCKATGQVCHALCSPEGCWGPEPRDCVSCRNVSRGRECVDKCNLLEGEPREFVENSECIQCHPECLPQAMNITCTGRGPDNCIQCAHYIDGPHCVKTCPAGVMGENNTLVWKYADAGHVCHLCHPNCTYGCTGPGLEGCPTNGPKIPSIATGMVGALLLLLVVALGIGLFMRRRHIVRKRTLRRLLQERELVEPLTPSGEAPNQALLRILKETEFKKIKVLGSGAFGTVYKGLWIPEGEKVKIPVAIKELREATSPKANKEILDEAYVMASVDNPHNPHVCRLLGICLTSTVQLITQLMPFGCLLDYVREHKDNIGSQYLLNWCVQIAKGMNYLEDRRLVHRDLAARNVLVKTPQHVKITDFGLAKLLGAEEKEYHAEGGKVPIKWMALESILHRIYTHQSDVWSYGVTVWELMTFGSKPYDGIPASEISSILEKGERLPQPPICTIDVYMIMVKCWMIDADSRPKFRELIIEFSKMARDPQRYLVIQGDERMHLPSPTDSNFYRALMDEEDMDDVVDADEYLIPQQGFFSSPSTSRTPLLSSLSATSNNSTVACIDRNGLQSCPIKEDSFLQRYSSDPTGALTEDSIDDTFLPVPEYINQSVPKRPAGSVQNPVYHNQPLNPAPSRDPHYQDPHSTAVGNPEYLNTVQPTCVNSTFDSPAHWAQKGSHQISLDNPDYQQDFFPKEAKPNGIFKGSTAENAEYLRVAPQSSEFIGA", "assay": "EGFR Exon20 NPH insertion cellular phosphorylation inhibition (MSD pEGFR Y1068/total EGFR);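 also: IL3-independent Ba/F3 cells with constitutively phosphorylated EGFR, compound exposure at 37 °C under 5% CO2, electrochemiluminescent MSD measurement of the p-EGFR to total EGFR ratio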", "format": "cell-based", "conditions": "Ba/F3 EGFR NPH ins cells, 4 h compound, p-EGFR(Y1068)/total EGFR"}, "EGFR L858R&T790M": {"target": "T2, EGFR L858R&T790M (Homo sapiens, UniProt P00533, L858R/T790M)", "T2 construct": "host or cells: NCI-H1975", "T2 sequence (P00533 25-1210 T790M/L858R)": "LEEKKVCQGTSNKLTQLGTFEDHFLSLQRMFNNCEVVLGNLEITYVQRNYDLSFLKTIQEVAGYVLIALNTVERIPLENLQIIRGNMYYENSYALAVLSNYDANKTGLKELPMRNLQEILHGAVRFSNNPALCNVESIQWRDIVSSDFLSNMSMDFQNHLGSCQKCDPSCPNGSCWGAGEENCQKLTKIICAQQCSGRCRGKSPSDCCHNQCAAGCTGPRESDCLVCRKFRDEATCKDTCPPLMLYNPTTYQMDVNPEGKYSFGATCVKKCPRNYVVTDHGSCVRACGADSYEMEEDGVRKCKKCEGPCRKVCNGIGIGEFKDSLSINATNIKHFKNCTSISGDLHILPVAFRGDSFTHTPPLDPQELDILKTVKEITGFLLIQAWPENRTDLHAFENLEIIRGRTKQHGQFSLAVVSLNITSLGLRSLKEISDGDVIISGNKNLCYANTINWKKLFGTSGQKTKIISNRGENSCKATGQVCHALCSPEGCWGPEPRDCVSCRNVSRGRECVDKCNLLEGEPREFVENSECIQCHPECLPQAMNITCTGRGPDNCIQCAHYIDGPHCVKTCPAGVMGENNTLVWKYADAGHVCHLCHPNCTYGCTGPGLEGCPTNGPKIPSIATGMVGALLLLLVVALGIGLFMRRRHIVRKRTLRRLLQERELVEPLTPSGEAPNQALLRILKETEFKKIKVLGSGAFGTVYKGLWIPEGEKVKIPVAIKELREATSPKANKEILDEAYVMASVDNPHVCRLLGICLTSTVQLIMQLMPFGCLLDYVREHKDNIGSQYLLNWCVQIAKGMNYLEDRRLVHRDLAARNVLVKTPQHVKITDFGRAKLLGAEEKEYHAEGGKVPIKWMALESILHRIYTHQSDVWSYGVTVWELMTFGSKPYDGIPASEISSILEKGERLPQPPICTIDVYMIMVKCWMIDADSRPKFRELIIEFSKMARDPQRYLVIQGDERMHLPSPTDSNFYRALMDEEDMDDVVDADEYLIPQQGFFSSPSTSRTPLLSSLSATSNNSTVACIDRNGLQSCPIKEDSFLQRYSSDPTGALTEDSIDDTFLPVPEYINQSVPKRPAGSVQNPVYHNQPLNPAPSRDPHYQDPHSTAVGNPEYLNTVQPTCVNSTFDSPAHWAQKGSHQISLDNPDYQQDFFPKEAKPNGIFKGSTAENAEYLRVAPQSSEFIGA", "assay": "EGFR L858R and T790M cellular phosphorylation inhibition in NCI-H1975 (MSD);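 also: phosphorylated and total EGFR detected by electrochemiluminescence, cells exposed to compound in medium containing 1% FBS at 37 °C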", "format": "cell-based", "conditions": "NCI-H1975 cells, 4 h compound, p-EGFR(Y1068)/total EGFR; read-out: EGFR L858R and T790M mutation IC50", "method": "One day before the test, WT or mutant cells were seeded in 96 well plates at appropriate concentrations with corresponding growth media supplemented with 1% FBS, and incubated overnight. The next day, tested compounds at a series of concentrations were added into each individual well of the plates, and the plates were incubated for 4 h at 37° C. with 5% CO2.\nThe EGFR (Y1068) phosphorylation level (activity) of cells in each well were then measured with MSD kit named “MULTI-SPOT®96 4-Spot HB Prototype EGFR Triplex [sequence]: pEGFR(Tyr1068),pEGFR(Tyr1173), Total EGFR” according to the manufacturer’s instruction (MESO SCALE DISCOVERY, Cat# N45ZB-1). The assay is an electrochemiluminescent method for determining both phosphorylated and total EGFR of cells with an MSD SECTOR® Imager and the ratio of p-EGFR/total EGFR can be generated by the machine. The Her2 (Y1248) phosphorylation level (activity) of cells in each well were measured with MSD Kit named “Phospho-ErbB2 (Tyr1248) Assay Whole Cell Lysate Kit” according to the manufacturer’s instruction (MESO SCALE DISCOVERY, Cat# K151CLD-3). The assay is an electrochemiluminescent method (MESO SCALE DISCOVERY) for determining both phosphorylated and total Her2 of cells with an MSD SECTOR® Imager and then the ratio of p-Her2/total Her2 can be generated by the machine."}, "Ba/F3 EGFR ASV ins cells": {"test_system": "Ba/F3 EGFR ASV ins cells", "assay": "Cell proliferation, Ba/F3 EGFR ASV ins (CellTiter-Glo, 72 h);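 also: IL3-independent Ba/F3 cells transduced with EGFR V769_D770insASV, cellular ATP luminescence after compound exposure, growth relative to DMSO control with the day-0 baseline reading subtracted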", "format": "cell-based", "conditions": "Ba/F3 EGFR, 72 h, Ba/F3 EGFR ASV ins, 72 h proliferation; read-out: EGFR Exon20 ASV insertion GI50", "method": "WT or mutant cells were seeded in 384 well plates at appropriate concentrations with corresponding growth media supplemented with 10% FBS, for each experiment, identical plates were prepared in duplicates, and the plates were incubated overnight. On the next day, one of each duplicated plates was dosed with tested compounds at a series of concentrations, and another one of the duplicated plate was analysied for G0 value. The dosed plates were incubate for another 72 h at 37° C. with 5% CO2 and the number of viable cells in each well of the G0 plates or the dosed plates were measured by CellTiter-Glo® Luminescent Cell Viability Assay (Promega). This assay is a luminescent method for determining the number viable cells through measurement of cellular ATP concentration by detection of luciferase activity. Detection reagents (15 µl) was dispensed into per well, and the plates were incubate for 30 min at room temperature. Then, the luminescence in each well was measured using the Envision plate reader (PerkinElmer). The percentage of proliferation was calculated based on the formula: %Proliferation= 100 × (G3 value of sample well-Go value)/(G3 value of DMSO control-Go value)."}, "DB cells": {"test_system": "DB cells", "assay": "BTK (wt) cell proliferation, DB (CellTiter-Glo, 72 h);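 also: DB cells in 384-well plates given a dilution series of compound, viable cells read by ATP luminescence, growth expressed versus DMSO control after subtracting a time-zero plate reading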", "format": "cell-based", "conditions": "Homo sapiens, DB, DB cells, CellTiter-Glo, read-out: Non-BCR activated DB GI50", "method": "OCI-LY-10 at 3,750 cells/well, TMD-8 and Ri-1 at 2,000 cells/well, and DB at 1,250 cells/well, respectively, were sorted into 384-well plates in RPMI1640 medium with 10% FBS. After overnight incubation, all cells were incubated with compound at a series of concentrations. Meanwhile, a duplicated plate of each cell line was prepared for measuring G0 value. The dosed plates were further incubated for 72 hours and the number of viable cells was measured by CellTiter-Glo® Luminescent Cell Viability Assay (Promega), a luminescent method for determining the number of viable cells through measurement of cellular ATP concentration using Envision plate reader (PerkinElmer). The percentage of proliferation was calculated as: % Proliferation = 100 × (G3 value of sample well - G0 value)/(G3 value of DMSO control - G0 value)."}, "Phospho-BTK (Tyr223)": {"target": "T3, Phospho-BTK (Tyr223) (Homo sapiens, UniProt Q06187)", "T3 construct": "endogenous in cells; host or cells: Ramos", "T3 sequence (Q06187 whole entry)": "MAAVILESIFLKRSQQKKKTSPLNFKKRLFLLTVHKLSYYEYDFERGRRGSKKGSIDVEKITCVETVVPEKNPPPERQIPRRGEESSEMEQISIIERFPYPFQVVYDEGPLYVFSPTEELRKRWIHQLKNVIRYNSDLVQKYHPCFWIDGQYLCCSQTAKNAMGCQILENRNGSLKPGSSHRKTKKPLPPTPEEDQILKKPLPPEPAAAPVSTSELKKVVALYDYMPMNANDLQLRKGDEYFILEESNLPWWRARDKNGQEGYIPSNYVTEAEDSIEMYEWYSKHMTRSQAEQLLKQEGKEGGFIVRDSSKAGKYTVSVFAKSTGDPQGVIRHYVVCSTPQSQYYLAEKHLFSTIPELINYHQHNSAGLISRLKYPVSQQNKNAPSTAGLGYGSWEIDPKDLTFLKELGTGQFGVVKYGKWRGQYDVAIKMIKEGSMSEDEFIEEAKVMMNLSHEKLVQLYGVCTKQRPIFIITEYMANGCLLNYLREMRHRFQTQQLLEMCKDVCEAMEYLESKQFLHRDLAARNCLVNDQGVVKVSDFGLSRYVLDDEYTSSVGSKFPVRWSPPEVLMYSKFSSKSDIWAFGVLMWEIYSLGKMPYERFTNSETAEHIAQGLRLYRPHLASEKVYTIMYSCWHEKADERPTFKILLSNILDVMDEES", "assay": "p-BTK assay in Ramos cells (HTRF Phospho-BTK Tyr223)", "format": "cell-based", "conditions": "pervanadate stimulated, read-out: p-BTK (Romas) IC50", "method": "The assay plates were then incubated for 30 minutes at 37° C., 5% CO2. 300 uM Per vanadate (3X) was added to each well and the assay plates were again incubated for 60 minutes at 37° C., 5% CO2. Phospho-BTK (Tyr223) is detected using the HTRF® reagents (Cisbio) according to the manufacturer’s one-plate assay protocol."}, "[2]": {"assay": "Rat pharmacokinetic study after oral administration (SOA)", "format": "in vivo", "conditions": "male Han Wistar rats", "description": "For rat pharmacokinetic studies, six male Han Wistar rats were purchased from Beijing Vital River and orally dosed with the test compound at 10 mg/kg in 0.5% Tween-80 and 0.5% hydroxypropyl methylcellulose (v/w). At, 0.5, 1, 2, 4, 7 and 16 hours post-dose, blood samples (>100 µL/time point) were collected from portal vein and via cardiac puncture into separate K2EDTA […] tubes, and then immediately centrifuged at 1500 g, 5 min at 4° C. to separate plasma. The plasma samples were deproteinized with 4 fold acetonitrile (including internal standard), vortex for 10 min and centrifuges for 10 minutes at 4000 g at 4° C.. The supernatantswere submitted to LC/MS/MS (API 5500, Applied Biosystems, Foster City) analysis. Two sets of standard curves were run at the beginning and end of each batch from plasma sample analysis.\nCompound absorption was measured by portal vein AUC (AUCHPV) and systemic AUC (AUCSYS) observed maximum concentration (Cmax) in rats after oral administration. Dose is the actual dose used in SOA study. Find below in Table 9 data for exemplary tested compounds."}}}
{"compound": "C=CC(=O)Nc1cc(Nc2nccc(Nc3cc(Cl)c(F)cc3C(C)(C)O)n2)c(OC)cc1N1CC[C@@H](N(C)C)C1", "note": "[Compound 52, (R)-N-(5-(4-(5-chloro-4-fluoro-2-(2-hydroxypropan-2-yl)phenylamino)pyrimidin-2-ylamino)-2-(3-(dimethylamino)pyrrolidin-1-yl)-4-methoxyphenyl)a crylamide]", "values": [{"measurement": "IC50", "setting": "[1]", "result": 20.4, "unit": "nM"}, {"measurement": "IC50", "setting": "EGFR L858R&T790M", "result": 1.1, "unit": "nM"}, {"measurement": "GI50", "setting": "Ba/F3 EGFR ASV ins cells", "result": 83.2, "unit": "nM"}, {"measurement": "GI50", "setting": "DB cells", "result": 1980, "unit": "nM"}, {"measurement": "IC50", "setting": "Phospho-BTK (Tyr223)", "result": 2.9, "unit": "nM"}, {"measurement": "SOA DN AUCSYS (ng·h/mL)/(mg/kg)", "setting": "[2]; dose-normalised systemic AUC", "result": "103 (ng·h/mL)/(mg/kg)"}, {"measurement": "Cmax", "setting": "[2]; rat, plasma, nominal 10 mg/kg (actual dose in c1)", "result": 99, "unit": "ng/mL"}]}
